These results are taken from patent US6433001B1, “1H-indole-3-glyoxylamide sPLA2 inhibitors” (Eli Lilly and Company, priority 1994, dated 2002).

For test [1], the target named is T1, Human Secreted Phospholipase A2 (Homo sapiens, UniProt P14555).
T1 sequence (P14555 21-144): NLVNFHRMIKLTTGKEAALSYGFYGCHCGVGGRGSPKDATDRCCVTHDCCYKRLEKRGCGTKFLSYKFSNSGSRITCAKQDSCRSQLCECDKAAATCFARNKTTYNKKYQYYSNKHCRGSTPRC
Description: chromogenic assay for inhibitors of recombinant human secreted phospholipase A2. It is filed as biochemical. As for the experimental part: The following chromogenic assay procedure was used to identify and evaluate inhibitors of recombinant human secreted phospholipase A2. The assay described herein has been adapted for high volume screening using 96 well microtiter plates.
Adjust pH to 4.5 with acetic acid
DTNB—5,5′-dithiobis-2-nitrobenzoic acid
RACEMIC DIHEPTANOYL THIO—PC
racemic 1,2-bis(heptanoylthio)-1,2-dideoxy-sn-glycero-3-phosphorylcholine
TRITON X-100™ prepare at 6.249 mg/ml in reaction buffer to equal […].
A measured volume of racemic dipheptanoyl thio PC supplied in chloroform at a concentration of 100 mg/ml is taken to dryness and redissolved in 10 millimolar TRITON X-100™ nonionic detergent aqueous solution.
Reaction Buffer is added to the solution, then DTNB to give the Reaction Mixture.
The reaction mixture thus obtained contains 1 mM diheptanoly thio-PC substrate, 0.29 mm Triton X-100™ detergent, and 0.12 mm DTMB in a buffered aqueous solution at pH 7.5.
1. Add 0.2 ml reaction mixture to all wells;
2. Add 10 ul test compound (or solvent blank) to appropriate wells, mix 20 seconds;
3. Add 50 nanograms of sPLA2 (10 microliters) to appropriate wells;
4. Incubate plate at 40° C. for 30 minutes;
5. Read absorbance of wells at 405 nanometers with an automatic plate reader.
All compounds were tested in triplicate. […] Lack of color development at 405 nanometers evidenced inhibition. […] In all cases, % inhibition measured at 405 nanometers generated by enzyme reactions containing inhibitors relative to the uninhibited control reactions was determined. Each sample was titrated in triplicate and result values were averaged for plotting and calculation of IC50 values.

Test [2] addresses T1, Human Secreted Phospholipase A2. Description: guinea pig lung pleural strip tissue test, sPLA2-induced contraction. The following applies: guinea pig lung pleural strips; compound added 30 min. prior to sPLA2 concentration-response curves; pA2 interpreted as apparent KB; read-out: Tissue test secreted PLA2 Apparent KB. It is filed as cell-based. The text has this: Male Hartley strain guinea pigs (500-700 g) were killed by cervical dislocation and their heart and lungs removed intact and placed in aerated (95% O2:5% CO2) Krebs buffer. Dorsal pleural strips (4×1×25 mm) were dissected from intact parenchymal segments (8×4×25 mm) cut parallel to the outer edge of the lower lung lobes. Two adjacent pleural strips, obtained from a single lobe and representing a single tissue sample, were tied at either end and independently attached to a metal support rod. One rod was attached to a Grass force-displacement transducer (Model FTO3C, product of Grass Medical Instruments Co., Quincy, Mass., USA). […] All tissues were placed in 10 ml jacketed tissue baths maintained at 37° C. The tissue baths were continuously aerated and contained a modified Krebs solution of the following composition (millimolar) NaCl, 118.2; KCl, 4.6; CaCl2.2H2O, 2.5; MgSO4.7H2O, 1.2; NaHCO3, 24.8; KH2PO4, 1.0; and dextrose 10.0. Pleural strips from the opposite lobes of the lung were used for paired experiments. […] The tissues were allowed to equilibrate for 45 min. as the bath fluid was changed periodically.
Initially tissues were challenged 3 times with KCl (40 mM) to test tissue viability and to obtain a consistent response. After recording the maximal response to KCl, the tissues were washed and allowed to return to baseline before the next challenge. Cumulative concentration-response curves were obtained from pleural strips by increasing the agonist concentration (sPLA2) in the tissue bath by half-log10 increments while the previous concentration remained in contact with the tissues (Ref.1, supra.) Agonist concentration was increased after reaching the plateau of the contraction elicited by the preceding concentration. One concentration-response curve was obtained from each tissue. To minimize variability between tissues obtained from different animals, contractile responses were expressed as a percentage of the maximal response obtained with the final KCl challenge. When studying the effects of various drugs on the contractile effects of sPLA2, the compounds and their respective vehicles were added to the tissues 30 min. prior to star ting the sPLA2 concentration-response curves.
Data from different experiments were pooled and presented as a percentage of the maximal KCl responses (mean±S.E.). […] 163, (Ref.2) The model includes four parameters: the maximum tissue response which was assumed the same for each curve, the ED50 for the control curve, the steepness of the curves, and the pA2, the concentration of antagonist that requires a two-fold increase in agonist to achieve an equivalent response. […] 164 (Ref. 2).
To estimate the drug-induced suppression of the maximal responses, siPLA2 responses (10 ug/ml) were determined in the absence and presence of drug, and percent suppression was calculated for each pair of tissues.

Setting [3] is: diheptanoyl thio-PC substrate, pH 7.5, 40° C. for 30 minutes, absorbance at 405 nanometers, read-out: Inhibition of human secreted PLA2 IC50 ± mean deviation (3-4 tests).

Counter-ions that a name gives are not always drawn. Like-named read-outs stand apart in the source and are kept apart here.

Consider `Cc1c(C(=O)C(N)=O)c2c(OC(C)C(=O)O)cccc2n1Cc1ccccc1` (racemic) [Example 2, dl-2-[[3-(2-Amino-1,2-dioxoethyl)-2-methyl-1-(phenylmethyl)-1H-indol-4-yl]oxy]propanoic Acid], for which the concentration for half-maximal inhibition (IC50) in test [1] (setting [3]) was 9 ± 1.73 nM.

As to `Cc1c(C(=O)C(N)=O)c2c(OCC(=O)O)cccc2n1Cc1ccccc1-c1ccccc1` [3 (Na salt), [[3-(2-amino-1,2-dioxoethyl)-1-([1,1′-biphenyl]-2-ylmethyl)-2-methyl-1H-indol-4-yl]oxy]acetic acid, sodium salt], the Kb in test [2] stood at 67.6 ± 11.8 nM. In the case of `CCc1c(C(=O)C(N)=O)c2c(OCC(=O)O)cccc2n1Cc1cccc(Cl)c1` [10 (Na salt), [[3-(2-amino-1,2-dioxoethyl)1-[(3-chlorophenyl)methyl]-2-ethyl-1H-indol-4-yl]oxy]acetic acid, sodium salt], the Kb in test [2] was found to be 110 ± 10 nM. Regarding `Cc1c(C(=O)C(N)=O)c2c(OCC(=O)O)cccc2n1Cc1ccccc1` [Example 1, [[3-(2-Amino-1,2-dioxoethyl)-2-methyl-1-(phenylmethyl)-1H-indol-4-yl]oxy]acetic Acid], the IC50 in test [1] worked out at 10.7 ± 5.51 nM. In test [2], the Kb was 143 ± 67 nM.

Take `Cc1c(C(=O)C(N)=O)c2c(OCC(=O)O)cccc2n1Cc1ccccc1-c1ccccc1` [Example 3, [[3-(2-Amino-1,2-dioxoethyl)-1-([1,1′-biphenyl]-2-ylmethyl)-2-methyl-1H-indol-4-yl]oxy]acetic Acid]: the IC50 in test [1] is 5.33 ± 1.15 nM. Still for that read-out and setting: the value for `Cc1c(C(=O)C(N)=O)c2c(OCC(=O)O)cccc2n1Cc1cccc(-c2ccccc2)c1` [Example 4, [[3-(2-Amino-1,2-dioxoethyl)-1-([1,1′-biphenyl]-3-ylmethyl)-2-methyl-1H-indol-4-yl]oxy]acetic Acid] was 9.69 ± 1.14 nM; that for `Cc1c(C(=O)C(N)=O)c2c(OCC(=O)O)cccc2n1Cc1ccc(-c2ccccc2)cc1` [Example 5, [[3-(2-Amino-1,2-dioxoethyl)-1-([1,1′-biphenyl]-4-ylmethyl)-2-methyl-1H-indol-4-yl]oxy]acetic Acid] was 49 ± 11.5 nM. For the compound `Cc1c(C(=O)C(N)=O)c2c(OCC(=O)O)cccc2n1Cc1c(Cl)cccc1Cl` [Example 6, [[3-(2-Amino-1,2-dioxoethyl)-1-[(2,6-dichlorophenyl)methyl]-2-methyl-1H-indol-4-yl]oxy]acetic Acid], the half-inhibitory concentration (IC50) in test [1] (setting [3]) came out at 6 ± 1 nM. In the case of `Cc1c(C(=O)C(N)=O)c2c(OCC(=O)O)cccc2n1Cc1ccc(F)cc1` [Example 7, [[3-(2-Amino-1,2-dioxoethyl)-1-[4(-fluorophenyl)methyl]-2-methyl-1H-indol-4-yl]oxy]acetic Acid], the IC50 in test [1] was determined as 6 ± 1 nM.

As for `Cc1c(C(=O)C(N)=O)c2c(OCC(=O)O)cccc2n1Cc1cccc2ccccc12` [Example 8, [[3-(2-Amino-1,2-dioxoethyl)-2-methyl-1-[(1-naphthalenyl)methyl]-1H-indol-4-yl]oxy]acetic Acid], the IC50 in test [1] is 32.8 ± 7.04 nM. Turning to `CCc1c(C(=O)C(N)=O)c2c(OCC(=O)O)cccc2n1Cc1cccc(Cl)c1` [Example 10, [[3-(2-Amino-1,2-dioxoethyl)-1-[(3-chlorophenyl)methyl]-2-ethyl-1H-indol-4-yl]oxy]acetic Acid], the IC50 in test [1] was 6.67 ± 2.89 nM. Turning to `CCc1c(C(=O)C(N)=O)c2c(OCC(=O)O)cccc2n1Cc1ccccc1-c1ccccc1` [Example 11, [[3-(2-Amino-1,2-dioxoethyl)-1-([1,1′-biphenyl]-2-ylmethyl)-2-ethyl-1H-indol-4-yl]oxy]acetic Acid], the IC50 in test [1] amounted to 4.33 ± 2.31 nM. Further, the Kb in test [2] was determined as 57 ± 11 nM.

In the case of `CCCc1c(C(=O)C(N)=O)c2c(OCC(=O)O)cccc2n1Cc1ccccc1-c1ccccc1` [Example 12, [[3-(2-amino-1,2-dioxoethyl)-1-([1,1′-biphenyl]-2-ylmethyl)-2-propyl-1H-indol-4-yl]oxy]acetic Acid], the IC50 in test [1] (setting [3]) came out at 82.2 ± 18 nM. With `NC(=O)C(=O)c1c(C2CC2)n(Cc2ccccc2)c2cccc(OCC(=O)O)c12` [Example 13, [[3-(2-Amino-1,2-dioxoethyl)-2-cyclopropyl-1-(phenylmethyl)-1H-indol-4-yl]oxy]acetic Acid], in test [1], the IC50 stood at 27.6 ± 13.1 nM. Consider `NC(=O)C(=O)c1c(C2CC2)n(Cc2ccccc2-c2ccccc2)c2cccc(OCC(=O)O)c12` [Example 14, [[3-(2-Amino-1,2-dioxoethyl)-1-([1,1′-biphenyl]-2-ylmethyl)-2-cyclopropyl-1H-indol-4-yl]oxy]acetic Acid], for which the IC50 in test [1] turned out to be 5.57 ± 2.89 nM. The Kb in test [2] was found to be 75 ± 9 nM.

Regarding `CCc1c(C(=O)C(N)=O)c2cc(OCCCC(=O)O)ccc2n1Cc1ccccc1` [Example 15], in test [1] (setting [3]), the IC50 was 210 ± 60 nM. For the compound `NC(=O)C(=O)c1cn(Cc2ccccc2)c2ccc(OCCCC(=O)O)cc12` [Example 16, 4-[[3-(2-Amino-1,2-dioxoethyl)-1-(phenylmethyl)-H-indol-5-yl]oxy]butanoic Acid], the “activity in inhibiting sPLA2 (in words)” value in test [1] (comment on Table I) is “much less active”. Further, in test [1] (setting [3]), the IC50 was determined as 62000 nM. Consider `CCc1c(C(=O)C(N)=O)c2c(NCC(=O)O)cccc2n1Cc1ccccc1` [Example 17, [[3-(Aminooxoacetyl)-2-ethyl-1-(phenylmethyl)-1H-indol-4-yl]amino]acetic Acid], for which, in test [1] (setting [3]), the IC50 amounted to 1150 ± 120 nM.
